According to PMC7546004, “Targeting BCL10 by small peptides for the treatment of B cell lymphoma” (Theranostics, 2020):
Square brackets hold non-standard residues; d marks the D form. Peptide text beside a SMILES is read from it.

Tests used:
BCL10 = molecular target: T1, BCL10 (Homo sapiens, UniProt O95999); experiment: In vitro BCL10 filamentation assay (negative-stain electron microscopy); format: biochemical; details: MBP-BCL10 and peptide premixed at 1:1 or 1:2 molar ratio, RT 30 min, then TEV cleavage
T1 sequence (O95999 1-233): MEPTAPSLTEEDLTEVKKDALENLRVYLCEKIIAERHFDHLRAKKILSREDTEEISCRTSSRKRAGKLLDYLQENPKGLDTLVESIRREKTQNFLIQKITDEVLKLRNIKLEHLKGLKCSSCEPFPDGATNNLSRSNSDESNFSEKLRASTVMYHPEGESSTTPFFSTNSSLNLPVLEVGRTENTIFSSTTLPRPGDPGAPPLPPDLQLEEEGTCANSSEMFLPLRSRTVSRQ
Protocol: MBP-BCL10 was expressed and purified as previously described. MBP-BCL10 and BCL10 peptide inhibitors were premixed at a 1:1 or 1:2 molar ratio at RT for 30 minutes before adding TEV to cleave the MBP tag. 5 μL of reaction mixture was applied to copper grids (Beijing Zhongjingkeyi Technology Co., Cat. No. BZ10024a), where it remained for 1 minute and was then negatively stained with 3% uranyl acetate for 1 minute, air-dried and imaged with a JEM-1230 TEM at 100 keV.

TMD8 cells = format: cell-based, human
Description: GraphPad Prism software was used to determine GI50 values.

[1] = test system: SU-DHL6 cell xenograft tumors; experiment: Mouse xenograft model; format: in vivo, NCG mice; details: DRI-BCL10-P4 10 mg/kg Q.d. or BCL10-Ctl 5 mg/kg Q.d., i.v.; n=8; p=0.049, Mann-Whitney U test
Protocol: (§1) Mouse xenograft experiments:
(§2) Six-week-old female NOD prkdc-/- IL-2Rg-/- (NCG) mice purchased from GemPharmatech Co., Lt d we re raised in a SPF- level Laboratory Animal Room. Low -passage 5x106 human TMD8, SU-DHL- 6 or 1x10^7 OCl-LY1 cells at 100μl were premixed with 100μl Matrigel (Corning Biocoat, cat. # 354234) and inoculated subcutaneously into the right flank of mice. When tumors reached an average size of 150 mm3, mice were randomly assigned into treatment groups (10 mg /kg DRI-BCL10- P4) or control groups (5 mg /kg BCL10- Ctl). Peptides were reconstituted in 5% DMSO/PBS and administered by i.v. injection. Tumor volumes were monitored by a digital caliper every other day and calculated using the formula: (smallest diameter2 x largest diameter)/2. Mice were weighed every day and sacrificed at the end of the treatment. T umors and main organs were harvested and we i ghte d at the moment of death. All animal experiments were approved by the Animal Institute Committee of Changhai Hospital, the Second Military Medical University.
(§3) Immunohistochemistry (IHC)
(§4) Formalin-fixed paraffin -embedded tumor xenografts were sectioned, dewaxed and submitted to antigen retrieval. The anti- Ki67 (proteintech, 27309-1) antibody was used at a 1:500 dilution.
Biotin-conjugated secondary antibodies (MXB biotechnologies, KIT-9710) were used. […]

[2] = test system: TMD8 cell xenograft tumors; experiment: Mouse xenograft model; format: in vivo, NCG mice
Protocol: as §1, §2, §3, §4
(§5) Biotin-conjugated secondary antibodies (MXB biotechnologies, KIT-9710) were used. Then avidin/biotin peroxidase (MXB biotechnologies, KIT-9710) was applied to the slides. Color was developed with diaminobenzoate chromogen peroxidase substrate (MXB biotechnologies, MAX007TM) and counterstained with […] (MXB biotechnologies, MAX007TM). Pictures were obtained using NanoZoomer-S60 microscope ([…]).
(§6) Terminal deoxynucleotidyl transferase dUTP nick end labeling, TUNEL assay was used to detect apoptotic DNA fragmentation. All the experiments were performed according to the kit (KeyGEN Biotech, KGA703) instructions. Briefly, formalin-fixed paraff i n-embedded xenografted tumors were deparaffinized and pre-treated with trypsin to expose DNA. Endogenous peroxidase was quenched using 3% hydrogen peroxide followed by incubation with TdT enzyme for 1 hour. Then, antidigoxigenin-peroxidase was applied to the slides. Color was developed with diaminobenzoate chromogen peroxidase substrate and counterstained with methyl green. Pictures were obtained using NanoZoomer-S60 microscope ([…]).

[3] = test system: OCI-LY1 cell xenograft tumors; experiment: Mouse xenograft model; format: in vivo, NCG mice; details: DRI-BCL10-P4 10 mg/kg or BCL10-Ctl 5 mg/kg daily, i.v.; Figure S8A-C
Protocol: as §1, §2, §3, §4, §5, §6

[4] = TMD8 xenograft, 10 mg/kg, compared with control group

CC[C@@H](C)[C@@H](NC(=O)[C@@H](CCCCN)NC(=O)[C@H](NC(=O)[C@@H](Cc1c[nH]c2ccccc12)NC(=O)[C@@H](Cc1ccccc1)NC(=O)[C@@H](CCC(N)=O)NC(=O)[C@@H](CC(N)=O)NC(=O)[C@@H](CCCNC(=N)N)NC(=O)[C@@H](CCCNC(=N)N)NC(=O)[C@@H](CCSC)NC(=O)[C@@H](CCCCN)NC(=O)[C@@H](Cc1c[nH]c2ccccc12)NC(=O)[C@@H](CCCCN)NC(=O)[C@@H](CCCCN)NC(=O)[C@@H](CCCNC(=N)N)NC(=O)[C@H](NC(=O)[C@@H](CO)NC(=O)[C@@H](CO)NC(=O)[C@@H](CCCNC(=N)N)NC(=O)[C@@H](CCCCN)NC(=O)[C@@H](CCCNC(=N)N)NC(=O)[C@@H](C)NC(=O)CNC(=O)[C@@H](CCCCN)NC(=O)[C@@H](CC(C)C)NC(=O)[C@@H](CC(C)C)NC(=O)[C@@H](CC(=O)O)NC(=O)[C@@H](Cc1ccc(O)cc1)NC(=O)[C@@H](CC(C)C)NC(=O)[C@@H](CCC(N)=O)NC(=O)[C@H](N)CCC(=O)O)[C@H](C)O)[C@H](C)CC)C(=O)N[C@H](CCC(N)=O)C(=O)N[C@H](CCCNC(=N)N)C(=O)N[C@H](CC(=O)O)C(=O)O [DRI-BCL10-P4] (H-[dE][dQ][dL][dY][dD][dL][dL][dK]G[dA][dR][dK][dR][dS][dS][dT][dR][dK][dK][dW][dK][dM][dR][dR][dN][dQ][dF][dW][dI][dK][dI][dQ][dR][dD]-OH)
BCL10 filament formation (EM) (BCL10): effectively disrupted BCL10 filament formation | GI50 (TMD8 cells): 11.9 ± 6.2 µM | growth of SU-DHL6 cell xenograft tumors [1]: significantly inhibited the growth | growth of TMD8 cell xenograft tumors ([2]; DRI-BCL10-P4 10 mg/kg Q.d. or BCL10-Ctl 5 mg/kg Q.d., i.v., n=8, p=0.013, Mann-Whitney U test): significantly inhibited the growth | apoptosis rate in tumor sections (TUNEL staining) [2, 4]: significant increase in the apoptosis rate | proliferation in tumor sections (Ki67 staining) [2, 4]: significant decrease in the proliferation | growth of OCI-LY1 cell xenograft tumors [3]: neither peptide significantly suppressed the growth
